# From the supplement of paper PMC10307832
# Compound: COc1nc(N)nc2c1ncn2[C@@H]1O[C@H](CO)[C@@H](O)[C@@H]1O [Nelarabine] + Nc1nc2[nH]cc(CCc3ccc(C(=O)N[C@@H](CCC(=O)O)C(=O)O)cc3)c2c(=O)[nH]1 [Pemetrexed] (partner 0.2 µM)
# Experiment: relative viability (nuclei count vs DMSO), 5 days (fraction); higher = more cells survive
# Details: first compound 1 µM
# Procedure, shortened: (§1)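 After 5 days of treatment, lung cancer cells in 1536-well plates were fixed and stained in a single step (final 0.05% Triton X-100, 1% formaldehyde, 1 ug/ml Hoechst) and their nuclei counted on 4× images. Treatment had been applied by pin tool the day after seeding as one drug alone or as a fixed anchor-drug dose with five library-drug doses (not always all listed) in √10 steps. Relative viability is the nuclei count of treated wells divided by that of vehicle wells, and values are medians of duplicate plates.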
row,Cell Line,relative viability
1,SW 900,0.506

# Compound: COc1nc(N)nc2c1ncn2[C@@H]1O[C@H](CO)[C@@H](O)[C@@H]1O [Nelarabine] + COc1cc2c(Oc3ccc(NC(=O)C4(C(=O)Nc5ccc(F)cc5)CC4)cc3F)ccnc2cc1OCCCN1CCOCC1 [Foretinib] (partner 0.25 µM)
# Experiment: as above
# Details: first compound 0.01 µM
# Procedure, shortened: as §1
row,Cell Line,relative viability
1,201T,1.46
2,A549,1.11
3,A-427,1.11
4,ABC-1,1.11
5,BEN,0.583
6,CAL-12T,1.3
7,COR-L23,1.23
8,COR-L 105,0.953
9,Calu-6,1.01
10,ChaGo-K-1,0.971
11,EBC-1,0.122
12,EKVX,0.966
13,EPLC-272H,0.81
14,HARA,1
15,HCC-15,1.16
16,HCC-78,0.607
17,HCC-366,1.03
18,HCC-827,1.01
19,HOP-62,1.08

row,Cell Line,relative viability
1,IA-LM,1.37
2,LC-2-ad,1
3,LCLC-97TM1,0.996
4,LCLC-103H,0.958
5,LK-2,1.3
6,LOU-NH91,0.959
7,LU99A,0.934
8,LXF-289,1.07
9,NCI-H358,0.854
10,NCI-H650,1.09
11,NCI-H661,1.15
12,NCI-H727,0.881
13,NCI-H1299,1.15
14,NCI-H1563,0.809
15,NCI-H1623,0.971
16,NCI-H1703,0.388
17,NCI-H2342,0.974
18,SW 900,1.02

# Same assay, conditions: first compound 0.03162 µM
row,Cell Line,relative viability
1,A549,0.853
2,A-427,0.97
3,ABC-1,0.862
4,BEN,0.744
5,CAL-12T,1.14
6,COR-L23,1.02
7,COR-L 105,0.991
8,Calu-6,0.826
9,ChaGo-K-1,0.826
10,EBC-1,0.111
11,EKVX,0.803
12,EPLC-272H,0.503
13,H3255,1.12
14,HARA,1.07
15,HCC-15,0.996
16,HCC-78,0.538
17,HCC-366,0.717
18,HCC-827,0.925

row,Cell Line,relative viability
1,HOP-62,1
2,IA-LM,1.01
3,LC-2-ad,1.01
4,LCLC-97TM1,0.792
5,LCLC-103H,0.825
6,LOU-NH91,0.938
7,LU99A,0.683
8,LXF-289,0.922
9,NCI-H358,0.666
10,NCI-H650,1.04
11,NCI-H661,1.2
12,NCI-H727,0.97
13,NCI-H1299,1.08
14,NCI-H1563,0.967
15,NCI-H1623,0.818
16,NCI-H1703,0.405
17,NCI-H2342,0.887
18,SW 900,0.749

# Same assay, conditions: first compound 0.1 µM
row,Cell Line,relative viability
1,201T,1.04
2,A549,0.972
3,A-427,0.972
4,ABC-1,0.931
5,BEN,0.655
6,CAL-12T,1.15
7,COR-L23,0.917
8,COR-L 105,1.26
9,Calu-6,0.9
10,ChaGo-K-1,0.82
11,EBC-1,0.146
12,EKVX,0.732
13,EPLC-272H,0.655
14,H3255,0.828
15,HARA,0.834
16,HCC-15,0.983
17,HCC-366,0.942
18,HCC-827,0.87
19,HOP-62,1.12

row,Cell Line,relative viability
1,IA-LM,1.23
2,LC-2-ad,0.848
3,LCLC-97TM1,1.01
4,LCLC-103H,0.72
5,LK-2,1.19
6,LOU-NH91,0.932
7,LU99A,0.706
8,LXF-289,0.988
9,NCI-H358,0.622
10,NCI-H650,0.968
11,NCI-H661,1.02
12,NCI-H727,0.912
13,NCI-H1299,1.13
14,NCI-H1563,0.811
15,NCI-H1623,0.879
16,NCI-H1703,0.332
17,NCI-H2342,0.875
18,SW 900,0.934

# Same assay, conditions: first compound 0.3162 µM
row,Cell Line,relative viability
1,201T,1.03
2,A549,1.01
3,A-427,1.13
4,ABC-1,1.05
5,BEN,0.638
6,CAL-12T,1.09
7,COR-L23,0.992
8,COR-L 105,1.08
9,Calu-6,0.959
10,ChaGo-K-1,0.947
11,EBC-1,0.0922
12,EKVX,0.614
13,EPLC-272H,0.66
14,H3255,0.938
15,HARA,1.23
16,HCC-15,1.12
17,HCC-78,0.527
18,HCC-366,0.974
19,HCC-827,0.822

row,Cell Line,relative viability
1,HOP-62,1.05
2,IA-LM,1.18
3,LC-2-ad,0.885
4,LCLC-97TM1,0.922
5,LCLC-103H,0.815
6,LK-2,1.17
7,LOU-NH91,0.893
8,LU99A,0.801
9,LXF-289,1.07
10,NCI-H358,0.854
11,NCI-H650,0.886
12,NCI-H661,1.05
13,NCI-H727,0.772
14,NCI-H1299,1.12
15,NCI-H1563,0.955
16,NCI-H1623,0.757
17,NCI-H1703,0.289
18,NCI-H2342,0.906
19,SW 900,0.947

# Same assay, conditions: first compound 1 µM
row,Cell Line,relative viability
1,201T,1.05
2,A549,0.98
3,A-427,0.954
4,ABC-1,0.94
5,BEN,0.556
6,CAL-12T,1.04
7,COR-L23,0.964
8,COR-L 105,0.967
9,Calu-6,0.928
10,ChaGo-K-1,0.882
11,EBC-1,0.105
12,EKVX,0.777
13,EPLC-272H,0.584
14,H3255,0.923
15,HARA,1.03
16,HCC-15,0.992
17,HCC-78,0.617
18,HCC-366,0.895
19,HCC-827,0.716

row,Cell Line,relative viability
1,HOP-62,1.05
2,IA-LM,1.27
3,LC-2-ad,0.858
4,LCLC-97TM1,0.935
5,LCLC-103H,0.79
6,LK-2,1.22
7,LOU-NH91,0.977
8,LU99A,0.889
9,LXF-289,0.969
10,NCI-H358,0.762
11,NCI-H650,1.13
12,NCI-H661,1.06
13,NCI-H727,0.945
14,NCI-H1299,1.13
15,NCI-H1563,0.905
16,NCI-H1623,0.834
17,NCI-H1703,0.395
18,NCI-H2342,1.01
19,SW 900,0.832

# Compound: C=CCn1c(=O)c2cnc(Nc3ccc(N4CCN(C)CC4)cc3)nc2n1-c1cccc(C(C)(C)O)n1 [Adavosertib] + CC1(C)CCC(c2ccc(Cl)cc2)=C(CN2CCN(c3ccc(C(=O)NS(=O)(=O)c4ccc(N[C@H](CCN5CCOCC5)CSc5ccccc5)c(S(=O)(=O)C(F)(F)F)c4)cc3)CC2)C1 [Navitoclax] (partner 0.5 µM)
# Experiment: as above
# Details: first compound 0.01 µM
# Procedure, shortened: as §1
row,Cell Line,relative viability
1,201T,1.24
2,A549,1.21
3,A-427,0.94
4,BEN,0.0632
5,CAL-12T,1.03
6,COR-L23,1.14
7,COR-L 105,0.886
8,Calu-6,0.819
9,ChaGo-K-1,0.84
10,EBC-1,0.416
11,EKVX,0.927
12,EPLC-272H,1.09
13,H3255,0.374
14,HARA,1.11
15,HCC-15,0.699
16,HCC-44,1.02
17,HCC-78,0.81
18,HCC-366,0.983
19,HCC-827,1.06
20,HOP-62,1.12
21,IA-LM,0.821
22,LC-2-ad,0.452
23,LK-2,0.98
24,LOU-NH91,0.718
25,LU99A,0.895
26,LXF-289,0.959
27,NCI-H727,0.468
28,NCI-H1299,1.08
29,NCI-H1703,1.27
30,NCI-H1792,0.529

# Same assay, conditions: first compound 0.03162 µM
row,Cell Line,relative viability
1,201T,1.18
2,A549,1.26
3,A-427,0.908
4,BEN,0.0724
5,CAL-12T,1.33
6,COR-L23,1.03
7,COR-L 105,0.72
8,Calu-6,0.898
9,ChaGo-K-1,0.877
10,EBC-1,0.413
11,EKVX,0.929
12,EPLC-272H,0.987
13,H3255,0.473
14,HARA,1.11
15,HCC-15,0.712
16,HCC-44,1.01

row,Cell Line,relative viability
1,HCC-78,0.686
2,HCC-366,1.07
3,HCC-827,1.07
4,HOP-62,1.16
5,IA-LM,0.742
6,LC-2-ad,0.411
7,LCLC-97TM1,0.372
8,LK-2,0.882
9,LOU-NH91,0.688
10,LU99A,0.733
11,LXF-289,1.03
12,NCI-H727,0.566
13,NCI-H1299,1.03
14,NCI-H1703,0.877
15,NCI-H1792,0.659

# Same assay, conditions: first compound 0.1 µM
row,Cell Line,relative viability
1,201T,1.26
2,A549,1.26
3,A-427,0.959
4,BEN,0.0727
5,CAL-12T,1.19
6,COR-L23,1.14
7,COR-L 105,0.746
8,Calu-6,0.88
9,ChaGo-K-1,0.934
10,EBC-1,0.448
11,EKVX,0.944
12,EPLC-272H,0.983
13,H3255,0.508
14,HARA,1.13
15,HCC-15,0.801
16,HCC-44,1.01

row,Cell Line,relative viability
1,HCC-78,0.894
2,HCC-366,1.12
3,HCC-827,1.18
4,HOP-62,1.4
5,IA-LM,0.976
6,LC-2-ad,0.392
7,LCLC-97TM1,0.473
8,LK-2,0.989
9,LOU-NH91,0.663
10,LU99A,0.901
11,LXF-289,0.992
12,NCI-H727,0.678
13,NCI-H1299,1.06
14,NCI-H1703,1.11
15,NCI-H1792,0.655

# Same assay, conditions: first compound 0.3162 µM
row,Cell Line,relative viability
1,201T,1.18
2,A549,0.901
3,A-427,0.895
4,BEN,0.0601
5,CAL-12T,1.02
6,COR-L23,0.293
7,COR-L 105,0.617
8,Calu-6,0.239
9,ChaGo-K-1,0.729
10,EBC-1,0.205
11,EKVX,1.2
12,EPLC-272H,0.861
13,H3255,0.447
14,HARA,1.1
15,HCC-15,0.821
16,HCC-44,1.06

row,Cell Line,relative viability
1,HCC-78,0.79
2,HCC-366,1.08
3,HCC-827,0.993
4,HOP-62,1.35
5,IA-LM,0.668
6,LC-2-ad,0.216
7,LCLC-97TM1,0.257
8,LK-2,0.808
9,LOU-NH91,0.53
10,LU99A,0.652
11,LXF-289,1.03
12,NCI-H727,0.372
13,NCI-H1299,1.06
14,NCI-H1703,0.157
15,NCI-H1792,0.643
